In patent US20090247559A1 (Exelixis, Inc., priority 2007, published 2009):

Tests used:
[1] = target: PIM (PIM-1, PIM-2, and/or PIM-3); assay: PIM-1, PIM-2 and PIM-3 inhibition, biochemical chemiluminescence assays (Kinase Glo, IC50 determination); details: Table 1 activity class; PIM refers to PIM-1, PIM-2, and/or PIM-3; read-out: PIM IC50 (Activity B)
[2] = target: CK2 (Homo sapiens, UniProt P68400); assay: CK2 inhibition, biochemical chemiluminescence holoenzyme assay (Kinase Glo, IC50 determination); details: Table 1 activity class; symbol given only if active; read-out: CK2 IC50 (Activity C)
Sequence of CK2 (P68400 whole entry): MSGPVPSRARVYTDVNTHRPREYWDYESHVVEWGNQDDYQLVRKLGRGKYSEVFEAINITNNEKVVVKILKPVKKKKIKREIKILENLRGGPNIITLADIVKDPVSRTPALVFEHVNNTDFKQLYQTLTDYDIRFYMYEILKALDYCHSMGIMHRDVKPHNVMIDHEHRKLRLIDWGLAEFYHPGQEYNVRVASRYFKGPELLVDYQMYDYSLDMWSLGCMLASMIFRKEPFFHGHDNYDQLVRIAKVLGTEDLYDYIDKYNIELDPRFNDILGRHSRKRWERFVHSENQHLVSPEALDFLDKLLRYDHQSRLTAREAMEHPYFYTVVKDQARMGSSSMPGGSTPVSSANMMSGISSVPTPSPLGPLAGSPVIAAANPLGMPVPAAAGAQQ
Sequence of CK2 (P67870 whole entry partner): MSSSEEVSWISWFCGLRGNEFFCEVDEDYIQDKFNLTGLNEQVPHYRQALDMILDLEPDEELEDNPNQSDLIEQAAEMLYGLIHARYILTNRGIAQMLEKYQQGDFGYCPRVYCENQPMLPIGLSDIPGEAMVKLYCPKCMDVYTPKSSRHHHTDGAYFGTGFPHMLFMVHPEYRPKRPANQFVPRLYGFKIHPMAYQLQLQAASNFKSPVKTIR
Protocol: Characterization of CK2 Inhibition in a Biochemical Chemiluminesence Assay (IC50 Determination):
The IC50 evaluation of compounds against CK2 was performed in a Chemiluminesence Holoenzyme assay utilizing a Greiner 384-well white medium binding white plate format. […] The assay procedure involves the compound dilution scheme followed by addition of 10 μL of the substrate twice, followed by 10 μL twice of the respective enzyme or buffer to the designated well plates and subsequent pre-incubation of the compounds. Following an incubation period of 150 minutes at ambient temperature (24-27° C.), 10 μL of Kinase Glo (Promega) was added. The luminescence was measured following a Luminescence Protocol on a Victor plate reader.

IC50 [1] [µM]	IC50 [2] [µM]	Structure (SMILES)
< 10	< 10	O=c1[nH]c(-c2ncc[nH]2)nc2c1oc1ccc(Br)cc12 [Compound 85, 8-bromo-2-(1H-imidazol-2-yl)[1]benzofuro[3,2-d]pyrimidin-4(3H)-one]
< 10	< 10	CSc1ccccc1-c1nc2c(oc3ccc(Br)cc32)c(=O)[nH]1 [Compound 88, 8-bromo-2-[2-(methylthio)phenyl][1]benzofuro[3,2-d]pyrimidin-4(3H)-one]
< 10	< 10	O=C(NC1CCCCC1)c1cccc(-c2nc3c(oc4ccc(Br)cc43)c(=O)[nH]2)c1 [Compound 92, 3-(8-bromo-4-oxo-3,4-dihydro[1]benzofuro[3,2-d]pyrimidin-2-yl)-N-cyclohexylbenzamide]
< 10	< 10	O=c1[nH]c(-c2cccc(Cl)c2)nc2c1oc1ccc(Br)cc12 [Compound 93, 8-Bromo-2-(3-chlorophenyl)[1]benzofuro[3,2-d]pyrimidin-4(3H)-one]
< 10	< 10	O=c1[nH]c(-c2ccccc2Cl)nc2c1oc1ccc3ccccc3c12 [Compound 96, 10-(2-Chlorophenyl)naphtho[1′,2′:4,5]furo[3,2-d]pyrimidin-8(9H)-one]
< 10	< 10	O=C(NCc1ccccc1)c1cccc(-c2nc3c(oc4ccc(Br)cc43)c(=O)[nH]2)c1 [Compound 99, 3-(8-bromo-4-oxo-3,4-dihydro[1]benzofuro[3,2-d]pyrimidin-2-yl)-N-(phenylmethyl)benzamide]
< 10	< 10	CC(C)CNC(=O)c1cccc(-c2nc3c(oc4ccc(Br)cc43)c(=O)[nH]2)c1 [Compound 101, 3-(8-bromo-4-oxo-3,4-dihydro[1]benzofuro[3,2-d]pyrimidin-2-yl)-N-(2-methylpropyl)benzamide]
< 10	< 10	CN1CCN(c2ccc(COCc3nc4c(oc5ccc(Br)cc54)c(=O)[nH]3)cc2)CC1 [Compound 102, 8-bromo-2-[({[4-(4-methylpiperazin-1-yl)phenyl]methyl}oxy)methyl][1]benzofuro[3,2-d]pyrimidin-4(3H)-one]
< 10	< 10	CN(C)c1ccc(CNCc2nc3c(oc4ccc(Br)cc43)c(=O)[nH]2)cc1 [Compound 104, 8-bromo-2-[({[4-(dimethylamino)phenyl]methyl}amino)methyl][1]benzofuro[3,2-d]pyrimidin-4(3H)-one]
< 10	< 10	O=c1[nH]c(CCN2CCCC2)nc2c1oc1ccc(Br)cc12 [Compound 105]
< 10	< 10	O=c1[nH]c(CC2CCNCC2)nc2c1oc1ccc(Br)cc12 [Compound 122, 8-bromo-2-(piperidin-4-ylmethyl)[1]benzofuro[3,2-d]pyrimidin-4(3H)-one]
< 10	< 10	CN(C)CCCCNc1ccc(-c2nc3c(oc4ccc(Br)cc43)c(=O)[nH]2)c(Cl)c1 [Compound 136, 8-bromo-2-(2-chloro-4-{[4-(dimethylamino)butyl]amino}phenyl)[1]benzofuro[3,2-d]pyrimidin-4(3H)-one]
< 10	< 10	O=c1[nH]c(-c2ccc(NCc3c[nH]cn3)cc2Cl)nc2c1oc1ccc(Br)cc12 [Compound 139, 8-bromo-2-{2-chloro-4-[(1H-imidazol-4-ylmethyl)amino]phenyl}[1]benzofuro[3,2-d]pyrimidin-4(3H)-one]
< 10	< 10	COc1ccc2oc3c(=O)[nH]c(-c4cc([N+](=O)[O-])ccc4Cl)nc3c2c1 [Compound 145, 2-(2-chloro-5-nitrophenyl)-8-(methyloxy)[1]benzofuro[3,2-d]pyrimidin-4(3H)-one]

Structure (SMILES)	IC50 [1] [µM]	IC50 [2] [µM]
CC(=O)Nc1ccc(-c2nc3c(oc4ccc(Br)cc43)c(=O)[nH]2)cc1 [Compound 80, N-[4-(8-bromo-4-oxo-3,4-dihydro[1]benzofuro[3,2-d]pyrimidin-2-yl)phenyl]acetamide]	< 10	< 10
